Results: PMC9250534, “Synthesis and direct assay of large macrocycle diversities by combinatorial late-stage modification at picomole scale” (Nature Communications, 2022)
Numbered stars: 1 amine (or outer) side, 2 acyl side, 3 side chain; on linkers, the order of the positions; unused ones are H or OH. Bridge positions count the residues as written; N and C are the ends. Square brackets hold non-standard residues; d marks the D form. Peptide text beside a SMILES is read from it. * marks the point of attachment. 2Thenoyl(5-Cl) = O=C(c1ccc(Cl)s1)*; Benzoyl(4-Cl) = O=C(c1ccc(Cl)cc1)*; Cysteamide = C(CS[*:3])N[*:1]; X1 = O=C(/C=C/c1ccccc1)*; Dap = NC[C@H](N)C(=O)O; Mpa = O=C(O)CCS

Molecular target: MDM2 (Homo sapiens, UniProt Q00987)
Assay: MDM2 binding screen: displacement of fluorescent p53 peptide probe FP53 (fluorescence polarization)
Settings: crude macrocycle reactions; for fraction fluorescent probe displaced, Screen: initial screen
Summary of the method: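 Single-point screen: one fluorescence anisotropy reading at 25 °C (485 nm excitation, 535 nm emission) per macrocycle. Crude macrocycle reactions, final 10 µM, were scored for displacing the fluorescent p53 peptide from human MDM2.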

MDM2, sequence (Q00987 whole entry): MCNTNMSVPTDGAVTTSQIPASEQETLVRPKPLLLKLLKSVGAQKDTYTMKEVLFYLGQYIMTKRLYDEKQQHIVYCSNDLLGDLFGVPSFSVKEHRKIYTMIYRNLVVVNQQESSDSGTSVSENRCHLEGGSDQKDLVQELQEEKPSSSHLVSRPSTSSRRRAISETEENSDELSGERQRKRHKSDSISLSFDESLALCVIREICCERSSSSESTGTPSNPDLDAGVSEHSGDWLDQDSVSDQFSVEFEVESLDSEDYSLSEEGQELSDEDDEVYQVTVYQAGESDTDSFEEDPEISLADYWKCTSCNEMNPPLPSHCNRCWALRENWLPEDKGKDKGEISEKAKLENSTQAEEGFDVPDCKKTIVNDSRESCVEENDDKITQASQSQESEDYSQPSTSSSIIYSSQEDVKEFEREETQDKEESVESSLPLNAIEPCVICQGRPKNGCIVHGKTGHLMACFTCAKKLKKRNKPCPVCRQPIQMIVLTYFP

Row | SMILES | fraction fluorescent probe displaced, Screen (Acid 91) | fraction fluorescent probe displaced, Replicate (Acid 91) | fraction fluorescent probe displaced, Screen (Acid 14) | fraction fluorescent probe displaced, Replicate (Acid 14) | further results
1 | O=C1CCSSCCNC(=O)C2CN(C(=O)C=Cc3ccccc3)CCN2C(=O)C(Cc2c[nH]c3ccccc23)NC(=O)c2cccc(c2)CN1 (centres unmarked) [X B5 W D7 Acid 91] | 0.03 | -0.00827 | – | – | –
2 | O=C1CCSSCCNC(=O)[C@H](Cc2ccccc2)NC(=O)[C@@H]2CCCN2C(=O)[C@H](CNC(=O)c2ccc(Cl)s2)N1 [X D3 B1 F Acid 14] ([Mpa][Dap](2Thenoyl(5-Cl))PF-Cysteamide; disulfide 1-C) | – | – | 0.11 | 0.07 | –
3 | O=C1CCSSCCNC(=O)[C@H](Cc2ccccc2)NC(=O)[C@@H]2CCCN2C(=O)[C@H](CNC(=O)c2ccc(Cl)cc2)N1 [X D3 B1 F Acid 25] ([Mpa][Dap](Benzoyl(4-Cl))PF-Cysteamide; disulfide 1-C) | – | – | – | – | fraction fluorescent probe displaced, Screen (Acid 25): 0.15; fraction fluorescent probe displaced, Replicate (Acid 25): 0.12
4 | O=C(/C=C/c1ccccc1)NC[C@@H]1NC(=O)CCSSCCNC(=O)[C@H](Cc2ccccc2)NC(=O)[C@@H]2CCCN2C1=O [X D3 B1 F Acid 91] ([Mpa][Dap](X1)PF-Cysteamide; disulfide 1-C) | 0.00268 | -0.00827 | – | – | –
5 | O=C1CCSSCCNC(=O)[C@H](Cc2c[nH]c3ccccc23)NC(=O)[C@@H]2CCCN2C(=O)[C@H](CNC(=O)c2ccc(Cl)s2)N1 [X D3 B1 W Acid 14] ([Mpa][Dap](2Thenoyl(5-Cl))PW-Cysteamide; disulfide 1-C) | – | – | 0.17 | 0.10 | –
6 | O=C1CCSSCCNC(=O)[C@H](Cc2c[nH]c3ccccc23)NC(=O)[C@@H]2CCCN2C(=O)[C@H](CNC(=O)c2ccc(Cl)cc2)N1 [X D3 B1 W Acid 25] ([Mpa][Dap](Benzoyl(4-Cl))PW-Cysteamide; disulfide 1-C) | – | – | – | – | fraction fluorescent probe displaced, Screen (Acid 25): 0.28; fraction fluorescent probe displaced, Replicate (Acid 25): 0.15
7 | O=C(/C=C/c1ccccc1)NC[C@@H]1NC(=O)CCSSCCNC(=O)[C@H](Cc2c[nH]c3ccccc23)NC(=O)[C@@H]2CCCN2C1=O [X D3 B1 W Acid 91] ([Mpa][Dap](X1)PW-Cysteamide; disulfide 1-C) | -0.0241 | 0.04 | – | – | –
8 | O=C1CCSSCCNC(=O)[C@H](Cc2ccccc2)NC(=O)CCNC(=O)[C@H](CNC(=O)c2ccc(Cl)s2)N1 [X D3 B2 F Acid 14] | – | – | 0.17 | 0.10 | –
9 | O=C(/C=C/c1ccccc1)NC[C@@H]1NC(=O)CCSSCCNC(=O)[C@H](Cc2ccccc2)NC(=O)CCNC1=O [X D3 B2 F Acid 91] | 0.08 | 0.04 | – | – | –
10 | O=C1CCSSCCNC(=O)[C@H](Cc2c[nH]c3ccccc23)NC(=O)CCNC(=O)[C@H](CNC(=O)c2ccc(Cl)s2)N1 [X D3 B2 W Acid 14] | – | – | 0.17 | 0.25 | –
11 | O=C1CCSSCCNC(=O)[C@H](Cc2c[nH]c3ccccc23)NC(=O)CCNC(=O)[C@H](CNC(=O)c2ccc(Cl)cc2)N1 [X D3 B2 W Acid 25] | – | – | – | – | fraction fluorescent probe displaced, Screen (Acid 25): 0.12; fraction fluorescent probe displaced, Replicate (Acid 25): 0.0465
12 | O=C(C=Cc1ccccc1)NCC1NC(=O)CCSSCCNC(=O)C(Cc2c[nH]c3ccccc23)NC(=O)CCNC1=O (centres unmarked) [X D3 B2 W Acid 91] | 0.11 | -0.0333 | – | – | –
13 | O=C1CCSSCCNC(=O)[C@H](Cc2ccccc2)NC(=O)[C@H]2CCCN(C2)C(=O)[C@H](CNC(=O)c2ccc(Cl)s2)N1 [X D3 B4 F Acid 14] | – | – | 0.0241 | 0.10 | –
14 | O=C1CCSSCCNC(=O)[C@H](Cc2c[nH]c3ccccc23)NC(=O)[C@H]2CCCN(C2)C(=O)[C@H](CNC(=O)c2ccc(Cl)s2)N1 [X D3 B4 W Acid 14] | – | – | 0.08 | 0.12 | –
15 | O=C1CCSSCCNC(=O)[C@H](Cc2c[nH]c3ccccc23)NC(=O)[C@H]2CCCN(C2)C(=O)[C@H](CNC(=O)c2ccc(Cl)cc2)N1 [X D3 B4 W Acid 25] | – | – | – | – | fraction fluorescent probe displaced, Screen (Acid 25): 0.25; fraction fluorescent probe displaced, Replicate (Acid 25): 0.20
16 | O=C(C=Cc1ccccc1)NCC1NC(=O)CCSSCCNC(=O)C(Cc2c[nH]c3ccccc23)NC(=O)C2CCCN(C2)C1=O (centres unmarked) [X D3 B4 W Acid 91] | 0.11 | 0.09 | – | – | –
17 | O=C(/C=C/c1ccccc1)NC[C@@H]1NC(=O)CCSSCCNC(=O)[C@H](Cc2ccccc2)NC(=O)c2cccc(c2)CNC1=O [X D3 B5 F Acid 91] | -0.18 | -0.0333 | – | – | –
18 | O=C1CCSSCCNC(=O)[C@H](Cc2c[nH]c3ccccc23)NC(=O)c2cccc(c2)CNC(=O)[C@H](CNC(=O)c2ccc(Cl)s2)N1 [X D3 B5 W Acid 14] | – | – | 0.14 | 0.20 | –
19 | O=C1CCSSCCNC(=O)[C@H](Cc2c[nH]c3ccccc23)NC(=O)c2cccc(c2)CNC(=O)[C@H](CNC(=O)c2ccc(Cl)cc2)N1 [X D3 B5 W Acid 25] | – | – | – | – | fraction fluorescent probe displaced, Screen (Acid 25): 0.25; fraction fluorescent probe displaced, Replicate (Acid 25): 0.10
20 | O=C(C=Cc1ccccc1)NCC1NC(=O)CCSSCCNC(=O)C(Cc2c[nH]c3ccccc23)NC(=O)c2cccc(c2)CNC1=O (centres unmarked) [X D3 B5 W Acid 91] | 0.08 | 0.14 | – | – | –
21 | O=C(/C=C/c1ccccc1)NC[C@@H]1NC(=O)CCSSCCNC(=O)[C@@H]2CCCN2C(=O)[C@H](Cc2ccccc2)NC1=O [X D3 F B1 Acid 91] ([Mpa][Dap](X1)FP-Cysteamide; disulfide 1-C) | -0.05 | -0.06 | – | – | –
22 | O=C1CCNC(=O)[C@H](Cc2ccccc2)NC(=O)[C@H](CNC(=O)c2ccc(Cl)s2)NC(=O)CCSSCCN1 [X D3 F B2 Acid 14] | – | – | 0.053 | 0.10 | –
23 | O=C1CCNC(=O)[C@H](Cc2ccccc2)NC(=O)[C@H](CNC(=O)c2ccc(Cl)cc2)NC(=O)CCSSCCN1 [X D3 F B2 Acid 25] | – | – | – | – | fraction fluorescent probe displaced, Screen (Acid 25): -0.00813; fraction fluorescent probe displaced, Replicate (Acid 25): 0.0211
24 | O=C(/C=C/c1ccccc1)NC[C@@H]1NC(=O)CCSSCCNC(=O)CCNC(=O)[C@H](Cc2ccccc2)NC1=O [X D3 F B2 Acid 91] | 0.0563 | -0.0333 | – | – | –
25 | O=C1CCSSCCNC(=O)[C@H]2CCCN(C2)C(=O)[C@H](Cc2ccccc2)NC(=O)[C@H](CNC(=O)c2ccc(Cl)s2)N1 [X D3 F B4 Acid 14] | – | – | 0.053 | -0.03 | –
